Results reported in publication PMC12489660, “Multitargeted Caffeic Acid Derivatives Inhibit Cardiac RyR2- and NaV1.5- Channels but Stimulate SERCA2a Pump Activity” (ACS Omega, 2025).
Values joined by “and” are separate entries in the source; they are usually repeats but may differ in a detail not shown here. Equal entries are not always repeated.

Test system: not listed separately
Assay: PermeaPad membrane permeability
Assay type: in vitro ADME
Details: not told, room temperature, class low/medium in parentheses, read-out: P e (permeability rate)
Source text: We determined permeability rates (P e ), which are a measure of how fast a compound can cross a membrane, using cell-free transport models (PermeaPad, innoME GmbH) The CA derivatives have medium to low permeability rates in the range 1.0–24.0 nm/s (Table ). Similar to S36, despite poor permeability, compounds 2–4, 8, and 9 acted on live RyR2-HEK-293 R-CEPIA1er cells inhibiting RyR2. […] Since PermeaPad is an artificial model that primarily reflects passive diffusion, it is likely that additional mechanisms contribute to the crossing of cell membranes by these compounds.
Membrane permeability was assessed using PermeaPad Plate according to the manufacturing procedure (innoME GmbH, Espelkamp, Germany). Briefly, 200 μL (V A) water was added into acceptor plate. 200 μL (V D) of 100–500 μM test compound in water was added directly to the well membranes of the donor plate. The donor plate contains a biomimetic membrane for simulating passive mass transfer through different barriers in the body. Then the donor plate was placed into the acceptor plate wells and incubated at room temperature for 24 h in dark. To determine peak absorbance of test compounds, absorbance spectra of acceptor solutions and initial solutions for each test compound were read out. The Permeability Rate (P e) was calculated using the formula:
P e = C × −ln (1 – ODA/ODB) cm/s, where OD A is the absorbance of acceptor solution, OD B is the absorbance of the standard solution; if the compound is able to permeabilize the membrane and fully reach equilibrium, 250 μM will be the final concentration of solution in the donor and acceptor wells. The coefficient C was calculated using the formula: C=VD×VA/(VD+VA)×Area×time where V A–acceptor volume (cm^3), V D–donor volume (cm^3), membrane area 0.24 cm^2, time is 86,400 s.

Row | Papp at 24 h | SMILES
1 | 1.8 ×10⁻⁶ cm/s | COc1ccc(OCCCNC(=O)/C=C/c2ccc(O)c(O)c2)cc1 [Compound 1, (E)-3-(3,4-Dihydroxyphenyl)-N-(3-(4-methoxyphenyloxy)propyl)acrylamide]
2 | 0.9 ×10⁻⁶ cm/s | COc1ccc2c(c1)CN(CCCCNC(=O)/C=C/c1ccc(O)c(O)c1)CCS2 [Compound 5]

Target: SERCA2 (Mus musculus, UniProt O55143)
Assay: Caffeine induced calcium release assay on live HL-1 cardiomyocytes;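 note: Read-out: caffeine-evoked peak minus basal fluorescence (ΔF Caff) of cytoplasmic FLIPR Calcium 6 dye, recorded for 1 min, compared with Tyrode's solution plus 0.1 v/v% DMSO as control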
Assay type: cell-based
Details: 10 μM; percentage from the control sample (100%); mean ± SEM

SERCA2, sequence (O55143 1-994 limits assumed): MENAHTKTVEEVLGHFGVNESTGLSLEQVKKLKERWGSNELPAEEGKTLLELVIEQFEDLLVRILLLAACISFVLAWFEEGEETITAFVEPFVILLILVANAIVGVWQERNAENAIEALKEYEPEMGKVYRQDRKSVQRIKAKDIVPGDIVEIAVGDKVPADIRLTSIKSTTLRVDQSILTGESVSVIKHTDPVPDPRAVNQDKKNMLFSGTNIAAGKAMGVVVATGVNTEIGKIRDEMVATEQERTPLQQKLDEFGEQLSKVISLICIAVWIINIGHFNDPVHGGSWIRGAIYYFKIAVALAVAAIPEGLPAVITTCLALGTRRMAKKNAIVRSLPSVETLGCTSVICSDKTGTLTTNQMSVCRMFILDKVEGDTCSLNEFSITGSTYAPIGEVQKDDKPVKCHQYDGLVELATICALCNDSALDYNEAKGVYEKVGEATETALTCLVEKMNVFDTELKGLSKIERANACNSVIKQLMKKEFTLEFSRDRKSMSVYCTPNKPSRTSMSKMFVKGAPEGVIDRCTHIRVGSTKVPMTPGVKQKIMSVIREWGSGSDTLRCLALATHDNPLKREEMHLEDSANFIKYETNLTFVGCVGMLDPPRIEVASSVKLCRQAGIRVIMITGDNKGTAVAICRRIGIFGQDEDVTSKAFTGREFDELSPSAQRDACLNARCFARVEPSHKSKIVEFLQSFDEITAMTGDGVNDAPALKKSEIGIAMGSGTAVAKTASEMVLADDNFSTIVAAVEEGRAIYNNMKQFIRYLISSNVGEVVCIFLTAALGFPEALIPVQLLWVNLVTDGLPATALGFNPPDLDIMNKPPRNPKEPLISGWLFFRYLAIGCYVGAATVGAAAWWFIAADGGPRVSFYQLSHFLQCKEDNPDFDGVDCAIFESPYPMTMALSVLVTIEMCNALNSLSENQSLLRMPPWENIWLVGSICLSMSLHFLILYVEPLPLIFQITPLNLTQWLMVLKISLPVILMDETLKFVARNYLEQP

Row | activation of SERCA2 in HL-1 | SMILES
3 | 157.7 ± 7.1% | COc1ccc(OCCCNC(=O)/C=C/c2ccc(O)c(O)c2)cc1 [Compound 1, (E)-3-(3,4-Dihydroxyphenyl)-N-(3-(4-methoxyphenyloxy)propyl)acrylamide]
4 | 190.6 ± 6.6% | COc1ccc2c(c1)CN(CCCCNC(=O)/C=C/c1ccc(O)c(O)c1)CCS2 [Compound 5]

Same assay, conditions: HL-1 cells, 2 h preincubation, 10 mM caffeine; read-out: activation of SERCA2 in HL-1, EC50 (converted)

Row | EC50 | SMILES
5 | 15 µM and 14.9 µM | COc1ccc(OCCCNC(=O)/C=C/c2ccc(O)c(O)c2)cc1 [Compound 1, (E)-3-(3,4-Dihydroxyphenyl)-N-(3-(4-methoxyphenyloxy)propyl)acrylamide]
6 | 9 µM and 9.1 µM | COc1ccc2c(c1)CN(CCCCNC(=O)/C=C/c1ccc(O)c(O)c1)CCS2 [Compound 5]

Target: T1, wild type mouse RyR2 (Mus musculus, UniProt E9Q401)
T1 construct: expressed in transfected cells; host or cells: HEK-293 cells stably expressing WT RyR2 and R-CEPIA1er (gift of Dr. Takashi Murayama), induced with doxycycline
Assay: Time-lapse [Ca2+]ER assay in HEK-293 RyR2 R-CEPIA1er cells (RyR2 activity assay);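 note: ER Ca2+ read as R-CEPIA1er fluorescence ratio F/F0 (F0 mean of initial 90 s, F mean of final 100 s), compared with vehicle-treated control wells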
Assay type: cell-based
Details: 25 μM, vs control 0.1 v/v% DMSO

Row | effect on RyR2 activity / [Ca2+]ER (in words) | SMILES
7 | did not affect the RyR2 activity | COc1ccc(OCCCNC(=O)/C=C/c2ccc(O)c(O)c2)cc1 [Compound 1, (E)-3-(3,4-Dihydroxyphenyl)-N-(3-(4-methoxyphenyloxy)propyl)acrylamide]
8 | did not affect the RyR2 activity | COc1ccc2c(c1)CN(CCCCNC(=O)/C=C/c1ccc(O)c(O)c1)CCS2 [Compound 5]

Same assay, conditions: 25 μM; percentage from the control sample (100%); mean ± SEM

Row | RyR2 activity | SMILES
9 | 100.8 ± 1.3% | COc1ccc(OCCCNC(=O)/C=C/c2ccc(O)c(O)c2)cc1 [Compound 1, (E)-3-(3,4-Dihydroxyphenyl)-N-(3-(4-methoxyphenyloxy)propyl)acrylamide]
10 | 100.5 ± 0.8% | COc1ccc2c(c1)CN(CCCCNC(=O)/C=C/c1ccc(O)c(O)c1)CCS2 [Compound 5]

Target: human NaV1.5 (Homo sapiens, UniProt Q14524)
Assay: FLIPR membrane potential assay on CHO NaV1.5 Duo cells (veratridine-induced)
Assay type: cell-based
Details: 10 μM; percentage from the control sample (100%); mean ± SEM

human NaV1.5, sequence (Q14524 1-460 limits assumed): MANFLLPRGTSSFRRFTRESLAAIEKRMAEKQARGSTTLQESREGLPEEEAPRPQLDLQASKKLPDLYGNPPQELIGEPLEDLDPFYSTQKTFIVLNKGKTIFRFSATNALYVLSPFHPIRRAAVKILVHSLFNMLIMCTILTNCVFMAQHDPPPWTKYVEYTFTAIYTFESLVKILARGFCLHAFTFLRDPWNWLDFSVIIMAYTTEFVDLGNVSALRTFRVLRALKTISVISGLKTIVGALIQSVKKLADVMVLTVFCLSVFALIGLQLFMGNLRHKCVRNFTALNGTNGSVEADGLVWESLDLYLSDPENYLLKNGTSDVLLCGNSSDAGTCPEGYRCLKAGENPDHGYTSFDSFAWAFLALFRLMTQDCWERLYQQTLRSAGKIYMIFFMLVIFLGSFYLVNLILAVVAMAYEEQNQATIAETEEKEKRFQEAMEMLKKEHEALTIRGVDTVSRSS
human NaV1.5, sequence (Q14524 661-1004 limits assumed): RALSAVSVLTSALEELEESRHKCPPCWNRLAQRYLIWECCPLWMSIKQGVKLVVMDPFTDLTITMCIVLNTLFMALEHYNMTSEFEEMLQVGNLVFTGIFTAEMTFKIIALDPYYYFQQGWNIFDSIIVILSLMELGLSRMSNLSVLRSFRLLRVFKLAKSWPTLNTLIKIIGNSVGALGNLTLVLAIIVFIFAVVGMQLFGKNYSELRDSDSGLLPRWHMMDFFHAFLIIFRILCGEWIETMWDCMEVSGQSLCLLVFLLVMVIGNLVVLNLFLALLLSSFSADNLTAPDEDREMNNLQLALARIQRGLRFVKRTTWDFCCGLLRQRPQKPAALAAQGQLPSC
human NaV1.5, sequence (Q14524 1142-2016 limits assumed): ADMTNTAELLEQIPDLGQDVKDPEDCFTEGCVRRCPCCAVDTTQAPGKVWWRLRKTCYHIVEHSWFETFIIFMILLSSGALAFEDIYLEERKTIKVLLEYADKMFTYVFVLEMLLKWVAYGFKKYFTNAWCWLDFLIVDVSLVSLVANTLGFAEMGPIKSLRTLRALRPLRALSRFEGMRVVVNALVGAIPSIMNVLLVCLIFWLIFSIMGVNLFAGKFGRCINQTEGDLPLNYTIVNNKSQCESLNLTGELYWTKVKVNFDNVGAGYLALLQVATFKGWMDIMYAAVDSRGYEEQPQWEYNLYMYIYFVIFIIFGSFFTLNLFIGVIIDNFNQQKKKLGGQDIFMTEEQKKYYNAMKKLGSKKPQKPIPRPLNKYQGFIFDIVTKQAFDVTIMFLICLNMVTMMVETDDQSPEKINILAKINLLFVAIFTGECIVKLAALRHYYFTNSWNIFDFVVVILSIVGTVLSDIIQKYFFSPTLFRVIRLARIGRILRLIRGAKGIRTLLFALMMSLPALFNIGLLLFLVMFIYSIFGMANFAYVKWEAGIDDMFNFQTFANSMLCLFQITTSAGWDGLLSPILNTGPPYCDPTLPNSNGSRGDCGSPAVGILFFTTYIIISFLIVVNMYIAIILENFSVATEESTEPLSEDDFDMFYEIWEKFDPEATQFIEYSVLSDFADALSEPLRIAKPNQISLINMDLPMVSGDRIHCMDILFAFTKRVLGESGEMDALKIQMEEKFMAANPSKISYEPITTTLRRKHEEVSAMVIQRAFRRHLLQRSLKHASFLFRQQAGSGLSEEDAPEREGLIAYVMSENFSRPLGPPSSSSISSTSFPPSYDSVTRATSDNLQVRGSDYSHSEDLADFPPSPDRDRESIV

Row | SMILES | NaV1.5 activity in CHO cells
11 | COc1ccc(OCCCNC(=O)/C=C/c2ccc(O)c(O)c2)cc1 [Compound 1, (E)-3-(3,4-Dihydroxyphenyl)-N-(3-(4-methoxyphenyloxy)propyl)acrylamide] | 91.8 ± 1.0%
12 | COc1ccc2c(c1)CN(CCCCNC(=O)/C=C/c1ccc(O)c(O)c1)CCS2 [Compound 5] | 97.7 ± 1.9%

Target: T2, SERCA2a (Mus musculus, UniProt O55143)
T2 construct: from tissue; host or cells: adult mouse heart ventricles, microsomal membrane vesicles
Assay: NADH-coupled ATPase assay on microsomal membrane vesicles from mouse heart ventricles (mouse SER)
Assay type: biochemical
Details: 10 μM, mouse SER
Description: To this end, we tracked the rate of nicotinamide adenine dinucleotide (NADH) oxidation linked to ATP hydrolysis by observing changes in NADH fluorescence over time. This was done after addition of ATP to solutions containing microsomal membranes enriched with SER vesicles isolated from adult mouse heart ventricles (mouse SER). The NADH fluorescence decrease was recorded on a FlexStation 3 Multimode Microplate Reader. […] We detected the highest increase in ATPase activity (up to 118%), when the vesicles were treated with borate complex 11–13 (Table ). We tested compounds 11–13 in the NADH assay buffer to see whether these compounds could contribute to the rate of NADH fluorescence reduction (Figures S7–S9). No significant deviations were found in the rate of NADH consumption compared to the control sample (0.1 v/v% DMSO).
Isolation of Microsomal Membrane Vesicles from mouse hearts was done according to procedure described earlier. All animal procedures were performed in accordance with national and institutional regulations.
Mouse ventricular microsomes (4–5 μg of total protein) were diluted in 100 μL of the assay buffer used for measurement of SERCA activity (described below) and incubated at room temperature for 10 min prior to the experiments. The measurements of SERCA2 activity were made at 25 °C by using a NADH -coupled ATPase assay as described in Radnai et al. with slight modifications. Briefly, the assay buffer contained 60 mM MOPS, 120 mM KCl, 6 mM MgCl2, 1 mM EGTA, 5 mM NaN3, 0.5 mM phosphoenolpyruvate and 0.67 mM CaCl2, pH 7.0. Before the reaction was started by the injection of 10 μL ATP (resulting in 2 mM final concentration in the well), 5 units/mL of both lactate dehydrogenase and pyruvate kinase, 0.5 mM NADH, and 1 μM Ca^2+ ionophore A-23187 (Sigma, C-7522) were added to the diluted sample with or without the tested compound (volume −150 μL). […] The NADH fluorescence decrease was recorded each 2 s for 5 min course on a FlexStation 3 Multi-Mode Microplate Reader in 96-well glass bottom plates (MatTek Corporation; Cat. No. PBK96G-1.5-5-F). Fluorescence was evoked by 380 nm excitation wavelength and collected in a bottom-read mode at 425 nm, cutoff–470 nm, 4 flashes per read. ATP was injected at 60 s, speed–125 μL/s, pipet height–140 μL. The data were analyzed with computer software GraphPad Prism version 8.3.1 (GraphPad Software, Inc.). The difference in signal decrease with and without microsomes was taken as an indicator for the additional ATPase activity performed by SERCA2. The obtained values for maximal SERCA2 activity were normalized for total protein concentration. Maximal SERCA2 activity values are reported as percentages of control (0.1% DMSO) values. Microsomal samples that were kept on ice until usage and set to 100%.

T2 sequence (O55143 1-998 isoform O55143-2): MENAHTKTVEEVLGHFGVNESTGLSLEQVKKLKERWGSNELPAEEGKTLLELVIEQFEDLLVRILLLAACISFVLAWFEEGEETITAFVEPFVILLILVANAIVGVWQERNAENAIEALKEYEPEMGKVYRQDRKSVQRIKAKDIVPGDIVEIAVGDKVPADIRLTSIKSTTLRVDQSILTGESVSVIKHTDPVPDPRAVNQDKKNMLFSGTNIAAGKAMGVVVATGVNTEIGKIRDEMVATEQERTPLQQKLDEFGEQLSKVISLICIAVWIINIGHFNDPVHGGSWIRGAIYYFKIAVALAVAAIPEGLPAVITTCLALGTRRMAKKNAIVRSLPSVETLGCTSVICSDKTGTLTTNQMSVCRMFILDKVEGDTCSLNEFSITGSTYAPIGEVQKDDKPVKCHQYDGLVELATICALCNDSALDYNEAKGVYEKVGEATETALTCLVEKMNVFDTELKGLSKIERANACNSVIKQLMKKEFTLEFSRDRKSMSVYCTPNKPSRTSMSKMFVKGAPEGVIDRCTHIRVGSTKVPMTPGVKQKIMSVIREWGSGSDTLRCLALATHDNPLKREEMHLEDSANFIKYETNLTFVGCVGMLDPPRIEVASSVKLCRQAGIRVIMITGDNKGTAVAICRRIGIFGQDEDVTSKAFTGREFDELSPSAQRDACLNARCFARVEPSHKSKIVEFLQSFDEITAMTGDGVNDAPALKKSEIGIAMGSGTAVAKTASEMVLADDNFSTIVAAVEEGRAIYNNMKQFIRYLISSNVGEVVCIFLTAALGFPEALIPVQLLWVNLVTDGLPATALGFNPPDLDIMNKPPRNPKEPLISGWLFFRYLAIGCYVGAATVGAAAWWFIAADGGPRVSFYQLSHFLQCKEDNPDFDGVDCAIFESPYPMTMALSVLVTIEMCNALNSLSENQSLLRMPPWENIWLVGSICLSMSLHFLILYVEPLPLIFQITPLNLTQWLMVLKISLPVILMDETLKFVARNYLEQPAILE

Row | SMILES | effect on SERCA2a ATPase activity (in words)
13 | COc1ccc(OCCCNC(=O)/C=C/c2ccc(O)c(O)c2)cc1 [Compound 1, (E)-3-(3,4-Dihydroxyphenyl)-N-(3-(4-methoxyphenyloxy)propyl)acrylamide] | did not evoke a significant increase in ATPase activity
14 | COc1ccc2c(c1)CN(CCCCNC(=O)/C=C/c1ccc(O)c(O)c1)CCS2 [Compound 5] | did not evoke a significant increase in ATPase activity

Same assay, conditions: 10 μM; percentage from the control sample (100%); mean ± SEM

Row | ATPase activity of SERCA2a in mouse SER | SMILES
15 | 98.2 ± 6.5% | COc1ccc(OCCCNC(=O)/C=C/c2ccc(O)c(O)c2)cc1 [Compound 1, (E)-3-(3,4-Dihydroxyphenyl)-N-(3-(4-methoxyphenyloxy)propyl)acrylamide]
16 | 109.0 ± 4.0% | COc1ccc2c(c1)CN(CCCCNC(=O)/C=C/c1ccc(O)c(O)c1)CCS2 [Compound 5]

Target: T3, SERCA2b (Homo sapiens, UniProt P16615)
T3 construct: endogenous in cells; host or cells: HEK-293T cells, microsomal membranes
Assay: NADH fluorescence-coupled ATPase assay on microsomal membranes isolated from HEK-293T cells
Assay type: biochemical
Details: 10 µM, HEK-293T microsomal membranes
Source text: HL-1 cells are known to express cardiac SERCA2a. […] HL-1 cells are in fact derived from mouse atrial cardiomyocytes that coexpress SERCA2a and SERCA2b. , We assumed that such behavior of compounds 1 and 5 is associated with their selective action on additional SERCA2 isoform present in these cells.

T3 sequence (P16615 whole entry): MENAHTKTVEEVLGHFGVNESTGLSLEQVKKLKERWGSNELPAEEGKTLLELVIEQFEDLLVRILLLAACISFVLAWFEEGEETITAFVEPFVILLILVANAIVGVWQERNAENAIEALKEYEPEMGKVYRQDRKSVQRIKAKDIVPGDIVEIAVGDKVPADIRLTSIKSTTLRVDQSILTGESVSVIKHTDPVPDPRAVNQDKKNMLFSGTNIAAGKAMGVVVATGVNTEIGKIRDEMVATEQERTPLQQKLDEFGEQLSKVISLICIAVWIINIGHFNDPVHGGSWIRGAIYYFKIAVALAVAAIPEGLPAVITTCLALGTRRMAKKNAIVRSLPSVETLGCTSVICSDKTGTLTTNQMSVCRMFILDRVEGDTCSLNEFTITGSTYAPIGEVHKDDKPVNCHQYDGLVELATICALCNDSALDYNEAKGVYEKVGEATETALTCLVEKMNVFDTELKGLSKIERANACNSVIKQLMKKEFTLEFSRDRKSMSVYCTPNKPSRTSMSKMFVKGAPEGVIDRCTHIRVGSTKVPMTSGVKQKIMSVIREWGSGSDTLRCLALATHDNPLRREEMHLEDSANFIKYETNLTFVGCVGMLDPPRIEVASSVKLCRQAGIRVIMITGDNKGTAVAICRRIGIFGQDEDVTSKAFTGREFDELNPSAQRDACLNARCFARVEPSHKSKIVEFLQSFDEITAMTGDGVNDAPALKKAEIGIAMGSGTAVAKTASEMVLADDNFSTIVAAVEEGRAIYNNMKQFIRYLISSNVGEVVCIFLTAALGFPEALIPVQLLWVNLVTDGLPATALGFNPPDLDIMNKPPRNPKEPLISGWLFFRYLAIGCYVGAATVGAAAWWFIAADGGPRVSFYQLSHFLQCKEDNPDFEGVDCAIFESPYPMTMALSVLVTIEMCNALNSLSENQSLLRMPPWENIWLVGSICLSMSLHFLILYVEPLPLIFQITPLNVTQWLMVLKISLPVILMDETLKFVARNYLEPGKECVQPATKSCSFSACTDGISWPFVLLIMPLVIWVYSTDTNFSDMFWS

Row | SMILES | effect on ATPase activity (in words)
17 | COc1ccc(OCCCNC(=O)/C=C/c2ccc(O)c(O)c2)cc1 [Compound 1, (E)-3-(3,4-Dihydroxyphenyl)-N-(3-(4-methoxyphenyloxy)propyl)acrylamide] | significantly increased the ATPase activity
18 | COc1ccc2c(c1)CN(CCCCNC(=O)/C=C/c1ccc(O)c(O)c1)CCS2 [Compound 5] | significantly increased the ATPase activity
